One assay deals with T1, FLT3 (Homo sapiens, UniProt P36888).
T1 construct: FLT3 kinase catalytic domain (residues Tyr567-Ser993); made in house; host or cells: Sf9 insect cells (baculovirus, pBac-PAK8-GST-FLT3-KD)
T1 sequence (P36888 567-993): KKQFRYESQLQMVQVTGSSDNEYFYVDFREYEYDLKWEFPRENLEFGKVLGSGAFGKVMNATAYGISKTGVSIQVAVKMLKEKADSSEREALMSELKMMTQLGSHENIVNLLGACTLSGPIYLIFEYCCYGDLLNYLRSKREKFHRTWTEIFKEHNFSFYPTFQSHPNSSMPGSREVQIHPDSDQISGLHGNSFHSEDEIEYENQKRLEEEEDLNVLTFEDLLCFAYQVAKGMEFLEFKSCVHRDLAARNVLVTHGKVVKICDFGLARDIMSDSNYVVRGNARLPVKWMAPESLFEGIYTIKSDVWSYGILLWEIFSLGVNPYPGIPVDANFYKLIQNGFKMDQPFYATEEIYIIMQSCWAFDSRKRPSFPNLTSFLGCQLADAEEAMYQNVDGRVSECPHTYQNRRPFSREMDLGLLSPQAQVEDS
Also on record: method as in PMID 20550212, PMID 23172777, PMID 24665000. The note with it: previously reported leads 1, 2, 3; cited from earlier work.

A further assay addresses T2, AURKA (Homo sapiens, UniProt O14965).
T2 construct: recombinant GST-AURKA (residues Ser123-Ser401) containing the kinase domain; GST (N); made in house; host or cells: Sf9 insect cells
T2 sequence (O14965 123-401): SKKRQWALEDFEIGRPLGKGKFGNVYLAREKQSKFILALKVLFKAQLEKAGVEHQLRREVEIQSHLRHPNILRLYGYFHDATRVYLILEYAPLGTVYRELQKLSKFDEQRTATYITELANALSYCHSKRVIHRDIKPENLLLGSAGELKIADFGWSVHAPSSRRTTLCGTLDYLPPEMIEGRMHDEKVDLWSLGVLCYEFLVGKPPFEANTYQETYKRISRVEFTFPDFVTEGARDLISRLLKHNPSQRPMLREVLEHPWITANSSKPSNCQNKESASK
Also on record: method as in PMID 20550212, PMID 23172777, PMID 24665000. The note with it: previously reported leads 1, 2, 3; cited from earlier work.

Another assay concerns HCT-116 cells. Put plainly: Anti-proliferative activity, HCT-116. Type of assay: cell-based, human.
Another assay has as its system MV4-11 cells. Put plainly: MTS cell viability assay, MV4-11. The format is cell-based, human. The note with it: Homo sapiens, MV4-11, 72 h, read-out: MV4-11 EC50. As for the experimental part: (§1) The MTS cell viability assay was conducted as previously described. The MOLM-13 human leukemia cell line was obtained from the German Resource Centre for Biological Material (DSMZ, Braunschweig, Germany); the MV4-11 cell line was purchased from the American Type Culture Collection (ATCC, Manassas, VA, USA). […] To determine cell viability after drug treatment, assay for MOLM-13 and MV4-11 was performed by seeding 10000 cells per well in a 96-well culture plate. […] After 16 h, cells were then treated with vehicle or various concentrations of compound in medium for 72 h. Viable cells were quantified using the MTS method (Promega, Madison, WI, USA) according to the manufacturer's recommended protocol. Results were determined by measuring the absorbance at 490 nm using a plate reader (Victor2; PerkinElmer, Shelton, CT, USA).
A general note: Formazan colour is commonly taken as a measure of viable cells.

A further assay concerns Colo 205 cells. As to the kind of experiment: Anti-proliferative activity, Colo 205. Type of assay: cell-based. Particulars: Homo sapiens, COLO 205, Human Colon Cancer.
The subject of another assay is MOLM-13 cells. As to the kind of experiment: MTS cell viability assay, MOLM-13. The format is cell-based, human. The note with it: Homo sapiens, MOLM-13, 72 h, read-out: MOLM-13 EC50. The protocol:
as §1

For another assay, the system named is K562 cells. Put plainly: Anti-proliferative activity, K562. Type of assay: cell-based. The note with it: Homo sapiens.
The test system of a further assay is RS4-11 cells. Put plainly: Anti-proliferative activity, RS4-11. Type of assay: cell-based. Particulars: Homo sapiens.
In the next assay the test system is H1975 cells. As to the kind of experiment: Anti-proliferative activity, H1975. Type of assay: cell-based. Particulars: Homo sapiens.
A further assay concerns HCC827 cells. Put plainly: Anti-proliferative activity, HCC827. Type of assay: cell-based. The note with it: Homo sapiens.
The next assay relates to CL-97 cells. Put plainly: Anti-proliferative activity, CL-97. The format is cell-based, human.
Another assay concerns H2228 cells. Put plainly: Anti-proliferative activity, H2228. The format is cell-based. Particulars: Homo sapiens.
A further assay has as its system U937 cells. As to the kind of experiment: Anti-proliferative activity, U937. The format is cell-based. Particulars: Homo sapiens.
In a further assay the test system is Mia-PaCa2 cells. As to the kind of experiment: Anti-proliferative activity, Mia-PaCa2. The format is cell-based, human. Particulars: Homo sapiens, MIA PaCa-2, Human Pancreatic Cancer; supplement values ± SEM.
Where [1] appears, read: HCT-116, Human Colon Cancer, supplement values ± SEM, read-out: HCT-116 EC50.
Setting [2] is: MTS, 72 h, AML-FLT3-ITD (homozygous), supplement values ± SEM.
[3] abbreviates: MTS, 72 h, AML-FLT3-ITD (heterozygous), supplement values ± SEM.

The IC50 is the concentration that gives 50% inhibition. As a reminder, the EC50 is the midpoint of the concentration-response curve.

Read-outs that look alike come from different tables or passages of the source.

As to `O=C(Nc1cccc(Cl)c1)Nc1ncc(CCNc2ncnc3oc(-c4ccccc4)c(-c4ccccc4)c23)s1` [Compound 3], the IC50 on FLT3 was 322 nM; at AURKA it was 43 nM.
For `Cc1cc(Nc2cc(N3CCN(C)CC3)nc(Sc3ccc(NC(=O)C4CC4)cc3)n2)[nH]n1` [VX-680, reference compound], the EC50 in the assay on HCT-116 cells (setting [1]) was 97 nM; in the assay with MV4-11 cells (setting [2]) it was 71 nM; in the assay on Colo 205 cells, 86 nM; in the assay on MOLM-13 cells (setting [3]) it was 69 nM.
On to `CCN(CCCOc1ccc2c(Nc3cc(CC(=O)Nc4cccc(F)c4)n[nH]3)ncnc2c1)CCOP(=O)(O)O` [Barasertib], for which the EC50 was 67 nM with HCT-116 cells (Homo sapiens, HCT-116, read-out: HCT-116 EC50); 17 nM in the assay on MV4-11 cells; over 10000 nM with K562 cells (K562, read-out: K562 EC50); 11 nM in the assay on RS4-11 cells (RS4-11, read-out: RS4-11 EC50); 390 nM in the assay on H1975 cells (NCI-H1975, read-out: H1975 EC50); 127 nM with HCC827 cells (HCC827, read-out: HCC827 EC50). Besides, the EC50 was 454 nM with CL-97 cells (Homo sapiens, CL97, read-out: CL-97 EC50); 340 nM with H2228 cells (NCI-H2228, read-out: H2228 EC50); over 10000 nM with U937 cells (U-937, read-out: U937 EC50); 42 nM with MOLM-13 cells.
As for `Cc1ccc(F)c(NC(=O)Nc2ccc(-c3cccc4[nH]nc(N)c34)cc2)c1` [Linifanib], the EC50 in the assay with HCT-116 cells (setting [1]) was 8070 nM; in the assay on MV4-11 cells (setting [2]), 82 nM; with K562 cells (K562, CML-Bcr-Abl FLT3-negative, supplement values ± SEM, read-out: K562 EC50) it was over 20000 nM; in the assay on RS4-11 cells (RS4-11, ALL-wt-FLT3 (homozygous), supplement values ± SEM, read-out: RS4-11 EC50) it was 9200 nM; in the assay on H1975 cells (NCI-H1975, NSCLC-EGFR LR/TM, supplement values ± SEM, read-out: H1975 EC50), 8850 nM; in the assay on HCC827 cells (HCC827, NSCLC-EGFR L858R, supplement values ± SEM, read-out: HCC827 EC50), 6180 nM. The EC50 in the assay on CL-97 cells (CL97, Human Lung Cancer, supplement values ± SEM, read-out: CL-97 EC50) is over 20000 nM; in the assay on H2228 cells (NCI-H2228, NSCLC-ALK, supplement values ± SEM, read-out: H2228 EC50), 8780 nM; in the assay on U937 cells (U-937, AML-FLT3-negative, supplement values ± SEM, read-out: U937 EC50) it was over 18000 nM; with MOLM-13 cells (setting [3]) it was 38 nM; in the assay with Mia-PaCa2 cells it was 16400 nM.
`O=C(Nc1ccccc1)Nc1ccc(CCNc2ncnc3oc(-c4ccccc4)c(-c4ccccc4)c23)cc1` [Compound 1]: the IC50 on FLT3 is over 10000 nM.

These data come from article PMC5349910, “Discovery of BPR1K871, a quinazoline based, multi-kinase inhibitor for the treatment of AML and solid tumors: Rational design, synthesis, in vitro and in vivo evaluation” (Oncotarget, 2016).
